From US12076311B2, “Therapeutic compositions comprising deuterated or partially deuterated N,N-dimethyltryptamine compounds” (CYBIN UK LTD, priority 2019, dated 2024)

Columns and labels:
[1] = tested on: Human (mixed gender) hepatocytes pooled from 10 donors; test: In vitro intrinsic clearance in human hepatocytes; type: in vitro ADME; conditions: human hepatocytes 0.545 million cells/mL, 5 μM, up to 60 minutes at 37° C.; weighted by ratio of D0, D1 and D2
Method: To use human hepatocytes to assess the in vitro intrinsic clearance of deuterated DMT analogue blends relative to DMT.
Human (mixed gender) hepatocytes pooled from 10 donors (0.545 million cells/mL) were used to investigate the in vitro intrinsic clearance of DMT and 6 deuterated analogues.
A concentration of 5 μM was used for all test compounds, as well as sumatriptan, serotonin, benzylamine controls. This concentration was chosen in order to maximise the signal-to-noise ratio, while remaining under the Michaelis constant (Km) for the monoamine oxidase enzyme (MAO). Diltiazem and diclofenac controls were used at a laboratory-validated concentration of 1 μM.
Test compounds were mixed with the hepatocyte suspension within a 96-well plate and incubated for up to 60 minutes at 37° C. […] At 7 time points, small aliquots were withdrawn, and the test compound/blend concentration therein was measured by LC-MS/MS. The time points measured were 2, 4, 8, 15, 30, 45 and 60 minutes. […]
The resulting concentration-time profile was then used to calculate intrinsic clearance (CLint) and half-life (t½). […] Intrinsic clearance is calculated from the slope/elimination rate constant and the formula is CLint=(−1000*slope)/cell denisty in 1E6 cells/ml, to give units of microlitre/min/million cells.
Intrinsic clearance and half-life values were calculated for DMT and the 6 deuterated mixtures described above.

[2] = short-acting psychedelic; cited from earlier work

Row | Structure (SMILES) | Intrinsic clearance [1] | duration of action [2]
1 | CN(C)CCc1c[nH]c2ccccc12 [DMT, N,N-dimethyltryptamine] | 13.77 μL/min/million cells | 
2 | CN(C)CCc1c[nH]c2ccccc12 [N,N-dimethyltryptamine (DMT)] |  | under 20 minutes
